US5155106A, “Cysteamine derivatives and antirheumatic agents containing cysteamine derivatives” (Terumo Kabushiki Kaisha, priority 1988, dated 1992)

Tested on: adjuvant arthritis of Lewis rats
Assay: Suppression of adjuvant arthritis in Lewis rats (hind leg sole edema, Mycobacterium butyricum)
Format: in vivo
Settings: Rattus norvegicus, 432 h, 100 mg/kg oral once a day, 18 days after sensitization; for inhibition in vivo at 100 mg/kg: edema increase vs control group, t-test *P<0.05, **P<0.02, ***P<0.01; for change in vivo at 100 mg/kg: percent increase vs volume before sensitization, control 130.9 ± 5.1 (Table 1), 137.6 ± 15.7 (Table 2), 131.0 ± 10.0 (Table 3), read-out: Increase in volume due to edema
Procedure: The compounds according to the present invention obtained in the Examples were evaluated for their effects against adjuvant arthritis (diseased animal model for chronic articular rheumatism) of Lewis rats.
In the Experiment, five six week old male Lewis rats (body weight, 130 to 160 g) were treated as one group.
To right hind leg sole of rats from each group was subcutaneously injected with 0.2 mg of dry culture of Mycobacterium butyricum suspended in liquid paraffin. The compounds were suspended in 5% Tween 80, and the suspensions were orally administered to the rats once a day from the day next to the day of sensitization. The rats of both the medicated groups and the control group (non-medicated group) were intermittently measured for their volume of edema in their hind leg sole to examine the effects of the compounds for suppressing the adjuvant arthritis.
Percent increase in the volume of the hind leg sole due to the edema was calculated on the basis of the volume before sensitization, and suppression was determined by comparing the percent increase of the medicated group with that of the control group.

Compound	inhibition in vivo at 100 mg/kg [%]	change in vivo at 100 mg/kg [%]
COc1ccc(C(=O)NC2=NCCS2)c(O)c1 [XIII, 2-(2-hydroxy-4-methoxybenzoylamino)thiazoline]	23.5	100 ± 3.1
CCCc1c(OC)ccc(C(=O)N2CCSCC2)c1O [XIV, N-(2-hydroxy-3-n-propyl-4-methoxybenzoyl)thiomorpholine]	21.5	103 ± 10
CCCCCCCCSCCNC(=O)c1ccc(OC)cc1O [XIX, 2-(2'-hydroxy-4'-methoxybenzoylamino)ethyl-n-octylsulfide]	41.4	76.8 ± 17.8
CCCc1c(OC)ccc(C(=O)N2CCSC2)c1O [XV, N-(2-hydroxy-3-n-propyl-4-methoxybenzoyl)thiazolidine]	27	95.6 ± 9.6
CCCc1c(OC)ccc(C(=O)NCc2cccs2)c1O [XVI, N-(2-hydroxy-3-n-propyl-4-methoxybenzoyl)-2-thiophenemethylamine]	34.4	85.9 ± 11.1
COc1ccc(C(=O)NCCS)c(O)c1 [XVII, N-(2-hydroxy-4-methoxybenzoyl)cysteamine]	38.4	84.8 ± 10.4
CCCc1c(OC)ccc(C(=O)NCCS)c1O [XVIII]	30.1	91.6 ± 10.9
CCCCCCCCSCCNC(=O)c1ccc(OC)c(CCC)c1O [XX, 2-(2'-hydroxy-3'-n-propyl-4'-methoxybenzoylamino)ethyl-n-octylsulfide]	21.1	103 ± 8.8
